Test results taken from the supplement of paper PMC10307832.

Compound: CC1=C(C(=NN1)C)CC2=C(C3=C(S2)N(C(=O)N(C3=O)C)CC(C)C)C(=O)N4C[C@@H](CO4)O + COc1cccc2cc(-c3nc([C@H]4CC[C@H](C(=O)O)CC4)n4ncnc(N)c34)[nH]c12 [OSI-027] (partner 0.5 µM)
Assay: relative viability (nuclei count vs DMSO), 5 days (fraction); higher = more cells survive
Conditions: first compound 0.0025 µM
How it was run: (§1)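 Each reported value is a median over duplicate plates. It expresses relative viability: treated-well nuclei count divided by vehicle-well nuclei count. Lung cancer cell lines in 1536-well plates were dosed by pin tool a day after seeding, alone with one drug or with a fixed anchor-drug dose plus five library-drug doses (not always all listed) in √10 steps, and nuclei were counted after 5 days.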

Cell Line	relative viability
NCI-H520	0.276
NCI-H2126	0.78
EMC-BAC-2	0.416
NCI-H2085	0.722
HCC-366	0.937
NCI-H1666	0.881
NCI-H596	0.721
LK-2	0.201
NCI-H2087	0.72
NCI-H2342	0.588
SK-MES-1	0.664
H3255	0.609
COR-L23	0.876
COR-L 105	0.741
LOU-NH91	0.719
ChaGo-K-1	0.613
NCI-H2170	0.736
NCI-H2405	0.703
HOP-62	0.896
HCC-44	0.676
SW 900	0.671
LU99A	0.339
BEN	0.31
NCI-H1648	0.238
NCI-H1563	0.802

Same assay, conditions: first compound 0.007906 µM

Cell Line	relative viability
NCI-H522	0.624
NCI-H1623	0.414
NCI-H727	0.504
NCI-H1650	0.657
NCI-H1993	0.539
SW 1573	0.846
NCI-H838	0.451
LCLC-103H	0.466
NCI-H520	0.281
NCI-H2126	0.669
EMC-BAC-2	0.403
NCI-H2085	0.685
HCC-366	1.16
NCI-H1666	0.927
NCI-H596	0.822
LK-2	0.184
NCI-H2087	0.506

Cell Line	relative viability
NCI-H2342	0.584
SK-MES-1	0.68
H3255	0.565
COR-L23	0.761
COR-L 105	0.694
LOU-NH91	0.714
ChaGo-K-1	0.592
NCI-H2170	0.792
NCI-H2405	0.645
HOP-62	0.849
HCC-44	0.376
SW 900	0.66
LU99A	0.335
BEN	0.293
NCI-H1648	0.247
NCI-H1563	0.76

Same assay, conditions: first compound 0.025 µM

Cell Line	relative viability
NCI-H522	0.608
NCI-H1623	0.447
NCI-H727	0.505
NCI-H1650	0.755
NCI-H1993	0.541
SW 1573	0.527
NCI-H838	0.409
LCLC-103H	0.467
NCI-H520	0.27
NCI-H2126	0.787
EMC-BAC-2	0.394
NCI-H2085	0.759
HCC-366	1.18
NCI-H1666	0.811
NCI-H596	0.889
LK-2	0.204

Cell Line	relative viability
NCI-H2087	0.517
NCI-H2342	0.624
SK-MES-1	0.634
H3255	0.62
COR-L23	0.68
COR-L 105	0.663
LOU-NH91	0.715
ChaGo-K-1	0.602
NCI-H2170	0.687
HOP-62	0.756
HCC-44	0.413
SW 900	0.55
LU99A	0.347
BEN	0.357
NCI-H1648	0.303
NCI-H1563	0.738

Same assay, conditions: first compound 0.07906 µM

Cell Line	relative viability
NCI-H522	0.45
NCI-H1623	0.424
NCI-H727	0.586
NCI-H1650	0.817
NCI-H1993	0.463
SW 1573	0.69
NCI-H838	0.384
LCLC-103H	0.496
NCI-H520	0.277
NCI-H2126	0.661
EMC-BAC-2	0.43
NCI-H2085	0.736
HCC-366	1.09
NCI-H1666	0.8
NCI-H596	0.803
LK-2	0.189
NCI-H2087	0.564

Cell Line	relative viability
NCI-H2342	0.618
SK-MES-1	0.66
H3255	0.604
COR-L23	0.678
COR-L 105	0.838
LOU-NH91	0.84
ChaGo-K-1	0.555
NCI-H2170	0.726
NCI-H2405	0.62
HOP-62	0.763
HCC-44	0.516
SW 900	0.659
LU99A	0.309
BEN	0.317
NCI-H1648	0.253
NCI-H1563	0.779

Same assay, conditions: first compound 0.25 µM

Cell Line	relative viability
NCI-H522	0.546
NCI-H1623	0.506
NCI-H727	0.708
NCI-H1650	0.631
NCI-H1993	0.57
SW 1573	0.64
NCI-H838	0.387
LCLC-103H	0.512
NCI-H520	0.193
NCI-H2126	0.684
EMC-BAC-2	0.416
NCI-H2085	0.447
HCC-366	0.933
NCI-H1666	0.944
NCI-H596	0.715
LK-2	0.228
NCI-H2087	0.54

Cell Line	relative viability
NCI-H2342	0.587
SK-MES-1	0.694
H3255	0.602
COR-L23	0.793
COR-L 105	0.679
LOU-NH91	0.727
ChaGo-K-1	0.563
NCI-H2170	0.681
NCI-H2405	0.661
HOP-62	0.909
HCC-44	0.747
SW 900	0.54
LU99A	0.294
BEN	0.292
NCI-H1648	0.267
NCI-H1563	0.741

Compound: CC1=C(C(=NN1)C)CC2=C(C3=C(S2)N(C(=O)N(C3=O)C)CC(C)C)C(=O)N4C[C@@H](CO4)O + N=C(N)NC(=N)NCCc1ccccc1 [Phenformin] (partner 250 µM)
Assay: as above
Conditions: first compound 0.0025 µM
How it was run: as §1

Cell Line	relative viability
NCI-H522	0.551
NCI-H1623	0.465
NCI-H727	0.424
NCI-H1650	0.536
